Read-outs that look alike come from different tables or passages of the source.
How the values were obtained:
[1] = Plasma protein binding rate, equilibrium dialysis (human plasma); format: in vitro ADME; settings: dialysis 4 hours at 37 °C, read-out: Unbound PPB%
Procedure: (§1) The protein binding rates of the compounds in the plasma of CD-1 mice, Sprague-Dawley rats, beagle dogs, cynomolgus monkeys, and human were determined using equilibrium dialysis method.
(§2) Commercially available plasma, dual-layer dialysis membrane, and equilibrium dialysis device.
(§3) The dual-layer dialysis membrane was soaked in ultrapure water for about 1 hour, removed and then divided into two parts. It was then soaked in an ethanol:water (20:80, v:v) solution for 20 minutes or placed at 2 to 8 °C, and it was valid for 1 month. Before starting the assay, the dialysis membrane was rinsed twice with ultrapure water and then soaked in ultrapure water for another 20 minutes for later use.
(§4) On the day of assay, the frozen plasma of CD-1 mice, Sprague-Dawley rats, beagle dogs, cynomolgus monkeys, and human was thawed in running cold tap water. After the plasma was completely thawed, the plasma was centrifuged at 3220×g for 5 minutes, and the suspended substances and precipitates in it were removed. The pH of the plasma was determined. The plasma with a pH in the range of 7.4 ± 0.1 was directly used, or the plasma with a pH in the range of 7.4 ± 0.1 after an adjustment with 1% phosphoric acid or 1M sodium hydroxide was used.
(§5) Preparation process of plasma samples: 597 µL of blank plasma from each of the above five species was taken, respectively. 3 µL of a compound or warfarin working solution was added, and the mixture was mixed thoroughly to give a plasma sample with a compound concentration of 2 µM and a warfarin concentration of 2 µM (n=1). The concentration of the organic phase DMSO was 0.5%. The sample was thoroughly mixed before proceeding to the next step.
(§6) Preparation process of T0 samples: 50 µL of a plasma sample containing the compound and warfarin was transferred to a sample receiving plate (n=3), and 50 µL of blank PBS was immediately added. Then, 500 µL of stop solution was added to the T0 sample of the compound and warfarin, and the mixture was stored at 2 to 8 °C, waiting to be processed later together with other dialysis-processed samples.
(§7) Dialysis process of plasma samples: 100 µL of a compound (2 µM) and warfarin (2 µM) plasma sample was added to the donor of each dialysis well (n=3), and 100 µL of blank PBS was added to the corresponding receiver of the dialysis well. The dialysis plate was placed in a 5% CO2 incubator, and incubated at 37 °C with shaking at approximately 100 rpm for 4 hours.
(§8) After the dialysis was completed, 50 µL of dialysis-processed PBS sample and dialysis-processed plasma sample (n=3) were transferred to a new 96-well plate (sample receiving plate). The corresponding volume of the corresponding blank plasma or PBS was added to the sample to make the final volume of each sample well 100 µL, with a plasma to PBS volume ratio of 1:1. All the samples were analyzed by LC-MS/MS after protein precipitation.
(§9) The formulas for calculating the unbound fraction (%Unbound), bound fraction (%Bound) and recovery fraction (%Recovery) of a compound are as follows: %Unbound = 100 ×F / T %Bound = 100 - %Unbound %Recovery = 100 ×(F + T)/ T0 wherein F is the concentration of the compound at the receiver of dialysis; T is the concentration of the compound at the supply end of dialysis; and T0 is the concentration of the compound in the plasma at time zero.

[2] = Plasma protein binding rate, equilibrium dialysis (monkey plasma); format: in vitro ADME, cynomolgus monkeys; settings: c (cynomolgus monkey plasma), dialysis 4 hours at 37 °C, read-out: Unbound PPB%
Procedure: as §1, §2, §3, §4, §5, §6, §7, §8, §9

[3] = target: T1, CYP2D6 (Homo sapiens, UniProt P10635); assay: Drug-drug interaction, CYP inhibition in human liver microsomes, cocktail method; format: in vitro ADME
T1 construct: from tissue; host or cells: human liver microsomes
T1 sequence (P10635 whole entry): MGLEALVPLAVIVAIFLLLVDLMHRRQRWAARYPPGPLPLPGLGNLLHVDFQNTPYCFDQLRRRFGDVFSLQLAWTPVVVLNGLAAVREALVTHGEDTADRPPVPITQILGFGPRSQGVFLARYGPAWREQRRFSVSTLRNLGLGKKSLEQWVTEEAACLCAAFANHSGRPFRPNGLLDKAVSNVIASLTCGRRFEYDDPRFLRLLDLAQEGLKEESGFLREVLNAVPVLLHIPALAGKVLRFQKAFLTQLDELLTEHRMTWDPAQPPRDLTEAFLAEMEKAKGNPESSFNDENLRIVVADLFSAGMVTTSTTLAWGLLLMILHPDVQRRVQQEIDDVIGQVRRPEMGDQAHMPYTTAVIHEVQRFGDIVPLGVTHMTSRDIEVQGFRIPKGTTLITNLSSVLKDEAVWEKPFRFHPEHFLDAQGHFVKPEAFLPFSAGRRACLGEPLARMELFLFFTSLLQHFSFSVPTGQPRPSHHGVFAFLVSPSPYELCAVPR
Procedure: (§10) The inhibitory effects of compounds on the activity of human liver microsomal cytochrome P450 isoenzymes (CYP1A2, CYP2C9, CYP2C19, CYP2D6, and CYP3A) were evaluated using a cocktail method with specific probe substrates for CYP1A2, CYP2C9, CYP2C19, CYP2D6, and CYP3A.
(§11) Human liver microsomes, probe substrates, positive control inhibitor, and reduced nicotinamide adenine dinucleotide phosphate.
(§12) 20 µL of a substrate solution was added to the corresponding well of a reaction plate, and 20 µL of potassium phosphate buffer was added to the blank wells.
(§13) 2 µL of a test compound working solution and positive control working solution were added to the corresponding wells, and 2 µL of solvent was added to the inhibitor-free wells and blank wells.
(§14) Human liver microsomal working solution was prepared, and 158 µL of human liver microsomal working solution was added to each well of the reaction plate.
(§15) The reaction plate was preheated at 37.0 °C for 10 minutes.
(§16) 20 µL of NADPH cofactor working solution was added to the reaction plate to initiate the reaction.
(§17) The mixture was mixed and incubated in a 37.0 °C water bath for 10 minutes, and 400 µL of stop solution was added to the reaction plate to terminate the reaction.
(§18) The sample plate was placed in a centrifuge, and centrifuged at 4000 rpm for 20 minutes.
(§19) 200 µL of supernatant was taken out, and appropriate 100 µL of pure water was added for dilution. The plate was shaken until the mixture was mixed well.
(§20) The analysis was performed using liquid chromatography-tandem mass spectrometry (LC-MS/MS).
(§21) The IC50 values of the assay samples were calculated by performing a three-parameter or four-parameter nonlinear regression analysis using XL fit software, with the remaining percentage of activity as the ordinate and the assay sample concentration as the abscissa. When the IC50 obtained by fitting with XL fit software was greater than the maximum administration concentration (50.0 µM) or IC50 could not be obtained by fitting, the IC50 value was marked as ">50.0 µM".
(§22) Three-parameter equation: y = (max)/(1 + (((x)/(IC50)))^−hillslope) [formula]
(§23) Four-parameter equation: y = min + (max−min)/(1 + (((x)/(IC50)))^−hillslope) [formula] max: maximum enzyme activity; min: minimum enzyme activity; x: concentration of the assay sample or positive control inhibitor; y: enzyme activity at the corresponding concentration; hillslope: slope; IC50: half-maximal inhibitory concentration; the four-parameter equation was used when the minimum enzyme activity was within ±10%, otherwise the three-parameter equation was used. Drug-drug interaction assay results of the compounds of the present disclosure

[4] = target: CYP3A4 (Homo sapiens, UniProt P08684); assay: as above; format: in vitro ADME
CYP3A4, sequence (P08684 2-503): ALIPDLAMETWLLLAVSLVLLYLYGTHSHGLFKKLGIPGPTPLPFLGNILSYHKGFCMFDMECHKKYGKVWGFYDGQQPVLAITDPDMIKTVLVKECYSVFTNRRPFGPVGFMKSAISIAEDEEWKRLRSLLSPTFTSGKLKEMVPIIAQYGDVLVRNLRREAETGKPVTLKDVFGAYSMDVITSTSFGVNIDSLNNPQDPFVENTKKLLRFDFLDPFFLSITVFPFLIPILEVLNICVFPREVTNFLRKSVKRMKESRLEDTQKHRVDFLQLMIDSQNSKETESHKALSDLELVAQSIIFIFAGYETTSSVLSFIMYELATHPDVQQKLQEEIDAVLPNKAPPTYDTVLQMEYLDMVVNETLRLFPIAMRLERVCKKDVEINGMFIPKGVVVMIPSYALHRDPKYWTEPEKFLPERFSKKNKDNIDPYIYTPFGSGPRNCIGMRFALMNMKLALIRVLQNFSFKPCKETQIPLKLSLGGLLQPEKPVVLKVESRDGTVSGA
Procedure: as §10, §11, §12, §13, §14, §15, §16, §17, §18, §19, §20, §21, §22, §23

[5] = target: T2, CYP2C19 (Homo sapiens, UniProt P33261); assay: as above; format: in vitro ADME
T2 construct: from tissue; host or cells: human liver microsomes
T2 sequence (P33261 whole entry): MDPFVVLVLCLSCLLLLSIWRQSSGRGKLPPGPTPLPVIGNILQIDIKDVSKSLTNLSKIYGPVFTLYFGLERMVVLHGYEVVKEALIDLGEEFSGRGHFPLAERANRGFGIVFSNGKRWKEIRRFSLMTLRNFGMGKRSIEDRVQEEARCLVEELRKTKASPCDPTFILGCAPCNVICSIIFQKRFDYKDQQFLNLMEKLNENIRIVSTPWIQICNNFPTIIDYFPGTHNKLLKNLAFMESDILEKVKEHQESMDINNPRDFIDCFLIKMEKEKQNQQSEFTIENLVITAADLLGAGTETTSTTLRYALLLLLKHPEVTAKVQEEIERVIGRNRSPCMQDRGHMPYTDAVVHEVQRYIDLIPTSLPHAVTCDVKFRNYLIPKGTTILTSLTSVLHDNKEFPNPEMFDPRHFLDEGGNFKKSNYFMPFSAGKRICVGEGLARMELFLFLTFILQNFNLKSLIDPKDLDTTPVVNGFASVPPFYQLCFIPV
Procedure: as §10, §11, §12, §13, §14, §15, §16, §17, §18, §19, §20, §21, §22, §23

[6] = target: T3, CYP2C9 (Homo sapiens, UniProt P11712); assay: as above; format: in vitro ADME
T3 construct: from tissue; host or cells: human liver microsomes
T3 sequence (P11712 whole entry): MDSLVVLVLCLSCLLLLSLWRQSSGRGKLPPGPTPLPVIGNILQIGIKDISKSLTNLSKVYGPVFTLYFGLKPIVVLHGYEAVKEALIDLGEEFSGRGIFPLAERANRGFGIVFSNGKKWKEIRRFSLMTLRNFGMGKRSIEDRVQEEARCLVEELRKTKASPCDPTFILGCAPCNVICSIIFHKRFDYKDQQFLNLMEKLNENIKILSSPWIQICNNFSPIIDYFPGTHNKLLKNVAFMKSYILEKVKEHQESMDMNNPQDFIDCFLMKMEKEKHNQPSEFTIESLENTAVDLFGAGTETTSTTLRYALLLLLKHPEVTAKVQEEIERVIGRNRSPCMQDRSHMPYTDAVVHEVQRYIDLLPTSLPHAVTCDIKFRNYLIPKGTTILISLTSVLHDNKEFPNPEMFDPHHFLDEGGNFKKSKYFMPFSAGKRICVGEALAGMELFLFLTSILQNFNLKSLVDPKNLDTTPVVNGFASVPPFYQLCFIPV
Procedure: as §10, §11, §12, §13, §14, §15, §16, §17, §18, §19, §20, §21, §22, §23

[7] = Plasma protein binding rate, equilibrium dialysis (dog plasma); format: in vitro ADME, beagle dogs; settings: d (beagle dog plasma), dialysis 4 hours at 37 °C, read-out: Unbound PPB%
Procedure: as §1, §2, §3, §4, §5, §6, §7, §8, §9

[8] = human liver microsomes, maximum concentration 50.0 µM, read-out: CYP 2D6 (IC50)
[9] = human liver microsomes, maximum concentration 50.0 µM, read-out: CYP 3A4 (IC50)
[10] = human liver microsomes, maximum concentration 50.0 µM, read-out: CYP 2C19 (IC50)
[11] = human liver microsomes, maximum concentration 50.0 µM, read-out: CYP 2C9 (IC50)

Compound	fraction unbound at 4 h, 2 µM [1]	fraction unbound at 4 h, 2 µM [2]	IC50 [3] [µM]	IC50 at 10 min ([4]; human, microsomes) [µM]	IC50 [5] [µM]	IC50 [6] [µM]	fraction unbound at 4 h, 2 µM [7]	IC50 [3, 8] [µM]	IC50 at 10 min [4, 9] [µM]	IC50 [5, 10] [µM]	IC50 [6, 11] [µM]
CC(C)(C)CC(=O)Nc1nc2c(F)cc(C#N)cn2c1-c1ccc(OC(F)(F)F)cc1 [Compound 1]	0.051	0.072	42	14	31	46	0.046				
CC(C)(C)CC(=O)Nc1nc2c(F)cc(C#N)cn2c1C1=CCCC1 [Compound 3]	0.109	0.134					0.203	> 50	> 50	> 50	> 50
CC(C)(C)CC(=O)Nc1nc2c(F)cc(C#N)cn2c1C12CC(C1)C2 [Compound 5]	0.231	0.159					0.278	> 50	> 50	> 50	> 50
CC(C)(C)CC(=O)Nc1nc2c(C(F)(F)F)cc(C#N)cn2c1C12CC(C1)C2 [Compound 6]								> 50	> 50	> 50	> 50

Reference: patent EP4786454A1, “HETEROARYL DERIVATIVE AND USE THEREOF” (priority 2023, dated 2025)
